# From EP4714938A1, “HDAC1/2 SELECTIVE INHIBITOR AND USE THEREOF” (Wigen Biomedicine Technology (Shanghai) Co., Ltd., priority 2023, dated 2024)
# Read-outs that look alike come from different tables or passages of the source.
# Key:
# [1] = tested on: Mouse colon cancer CT-26 cells; conditions: for Tumor response, number of mice (CR/PR/SD): 6 mice per group; for TGI(%): QD for 14 consecutive days, PO
# Description: Female BALB/c mice (aged 6 weeks, 18-22 g) were provided by Vital River Laboratory Animal Technology Co., Ltd. (China) and used one week after quarantine and acclimation. All animals were kept in a room at 23±2 °C with a relative humidity of 50±5%, artificial lighting was provided from 08:00 to 20:00 every day, and the air was exchanged 13-18 times per hour.
# Mouse colon cancer CT-26 cells were cultured conventionally in 1640 medium containing 10% fetal bovine serum in an incubator at 37 °C with 5% CO2. After being subcultured, the cells were collected when they reached the desired amount. The BALB/c mice were subcutaneously injected with 2 × 10^5 CT-26 cells on the right side to form tumors. After the tumors grew to about 100 mm^3, the animals were randomly grouped for administration. Tumor volumes were measured with a caliper on day 3, day 7, day 10, day 14, day 17, and day 21 after the administration. The ability of the compounds to inhibit tumor growth was evaluated according to the tumor growth inhibition rate (TGI) = 1 - (tumor volume on day 28 in treatment group - tumor volume on day 1 in treatment group)/(tumor volume on day 28 in control group - tumor volume on day 1 in control group). The toxicity of the compounds was evaluated according to the body weight and state of the mice.
# HDAC3 = HDAC3 (Homo sapiens, UniProt O15379); experiment: HDAC enzyme inhibitory activity, FRET method; assay type: biochemical
# Description: (§2) The compounds of the present disclosure were assayed for enzyme inhibitory activity against various subtypes of HDAC enzymes by the FRET method. The various subtypes of HDAC enzymes were obtained either through purification or direct purchase of assay kits.
# (§3) The specific method was as follows: The enzyme was added to a 384-well plate, and a reaction buffer was added to the control well. Serially diluted DMSO sample solutions were added to the reaction wells, and the plate was incubated at room temperature for 15 min. Then a chromogenic agent was added to stop the reaction, and fluorescence was generated. The fluorescence intensity was measured using an EnVision multi-label microplate reader (excitation: 355 nm, emission: 460 nm). The endpoint value was read after the color development reached stability. The inhibition IC50 of the compounds was calculated using GraphPad Prism4 software relative to DMSO.
# Acetyl lysine = experiment: Intracellular acetyl lysine level by ELISA in HeLa cells; assay type: cell-based; conditions: 24 h of treatment
# Description: (§1) HeLa cells were seeded into a 96-well plate at 20000 cells/well. After overnight adherence culture, the serially diluted compound was added. After 24 h of treatment, intracellular levels of acetyl lysine and H3K 27 acetyl lysine were quantified by ELISA. Table 8. Effect of compound of the present disclosure on levels of acetyl lysine and H3K 27 acetyl lysine
# HDAC10 = target: T1, HDAC10 (Homo sapiens, UniProt Q969S8); experiment: biochemical
# T1 sequence (Q969S8 1-669): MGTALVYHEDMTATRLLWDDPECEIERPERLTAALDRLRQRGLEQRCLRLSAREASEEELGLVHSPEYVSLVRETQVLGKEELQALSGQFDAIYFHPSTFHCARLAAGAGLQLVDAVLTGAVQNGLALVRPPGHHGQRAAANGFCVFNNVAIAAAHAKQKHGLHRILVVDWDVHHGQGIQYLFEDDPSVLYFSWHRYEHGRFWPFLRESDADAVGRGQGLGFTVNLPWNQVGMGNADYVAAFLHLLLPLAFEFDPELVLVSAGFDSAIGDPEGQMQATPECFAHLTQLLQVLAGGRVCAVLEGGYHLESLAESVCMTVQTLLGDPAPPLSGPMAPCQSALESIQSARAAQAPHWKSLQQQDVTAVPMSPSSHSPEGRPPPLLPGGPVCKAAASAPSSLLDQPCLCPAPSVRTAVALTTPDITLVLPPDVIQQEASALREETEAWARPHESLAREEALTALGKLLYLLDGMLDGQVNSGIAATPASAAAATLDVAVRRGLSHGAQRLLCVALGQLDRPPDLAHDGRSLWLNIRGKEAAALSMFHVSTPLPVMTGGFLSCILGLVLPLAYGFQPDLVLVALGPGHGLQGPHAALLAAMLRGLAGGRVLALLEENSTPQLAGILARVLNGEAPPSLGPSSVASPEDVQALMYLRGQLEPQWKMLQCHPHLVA
# Description: as §2, §3
# HDAC9 = HDAC9 (Homo sapiens, UniProt Q9UKV0); experiment: HDAC enzyme inhibitory activity, FRET method; assay type: biochemical; conditions: Table 6; read-out: IC50 HDAC subtype 9
# Description: as §2, §3
# H3K 27 Acetyl lysine = experiment: Intracellular H3K 27 acetyl lysine level by ELISA in HeLa cells; assay type: cell-based; conditions: 24 h of treatment
# Description: as §1
# [2] = Stability in liver microsomes; assay type: in vitro ADME; conditions: for half-life at 1 µM: 1 µM compound, 37 °C, NADPH regeneration system
# Description: After the 1 µM compound was individually incubated at 37 °C for various durations with […] liver microsomes from humans, monkeys, beagles, rats, or mice in the presence of an NADPH regeneration system, LC-MS-MS was used to analyze the remaining amount of the compound, and T1/2 was calculated. Table 10. Evaluation results of stability of compounds of the present disclosure in human and mouse liver microsomes
# HDAC1 = HDAC1 (Homo sapiens, UniProt Q13547); experiment: HDAC enzyme inhibitory activity, FRET method; assay type: biochemical
# Description: as §2, §3
# [3] = Pharmacokinetic experiment in mice; assay type: in vivo, CD-1 female mice; conditions: mouse, plasma
# Description: CD-1 female mice aged 7 to 10 weeks were intravenously administered and orally administered at doses of 1 mg/kg and 10 mg/kg, respectively. The mice were fasted for at least 12 h before the administration and given food 4 h after the administration, and they were given ad libitum access to water during the experiment.
# On the day of the experiment, animals in the intravenous group were given the corresponding compound by single injection via the tail vein at an administration volume of 10 mL/kg; and animals in the oral group were given the corresponding compound by single intragastric injection at an administration volume of 10 mL/kg. The animals were weighed before administration, and the administration volume was calculated according to the body weight. The sample collection time points were 0.083 h, 0.167 h, 0.5 h, 1 h, 2 h, 4 h, 8 h, and 24 h.
# About 200 µL of whole blood was collected through the orbital venous plexus at each time point and used to prepare plasma for concentration determination by high-performance liquid chromatography-tandem mass spectrometry (LC-MS/MS). The plasma concentrations were processed using a non-compartmental model of Winnolin pharmacokinetic software, and the pharmacokinetic parameters were calculated using a linear-log trapezoidal method. Table 9. Results of in vivo pharmacokinetic evaluation of compounds of the present disclosure
# [4] = Injection (1 mg/kg), intravenous
# Chain of HDAC3 (O15379 whole entry, species assumed): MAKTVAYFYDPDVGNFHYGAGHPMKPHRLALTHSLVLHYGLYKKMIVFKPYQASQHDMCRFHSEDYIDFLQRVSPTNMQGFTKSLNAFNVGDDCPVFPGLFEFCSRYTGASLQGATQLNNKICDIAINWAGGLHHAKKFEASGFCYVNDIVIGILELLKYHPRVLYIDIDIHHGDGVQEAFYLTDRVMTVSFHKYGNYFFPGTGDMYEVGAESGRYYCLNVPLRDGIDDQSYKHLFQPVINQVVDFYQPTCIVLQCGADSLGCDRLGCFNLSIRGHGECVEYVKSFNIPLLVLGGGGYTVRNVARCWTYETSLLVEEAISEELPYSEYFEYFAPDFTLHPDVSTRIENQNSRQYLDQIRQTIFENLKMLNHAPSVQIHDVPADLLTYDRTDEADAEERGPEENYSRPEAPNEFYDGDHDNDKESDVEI
# Chain of HDAC3 (Q9Y618 395-489 partner limits assumed, species assumed): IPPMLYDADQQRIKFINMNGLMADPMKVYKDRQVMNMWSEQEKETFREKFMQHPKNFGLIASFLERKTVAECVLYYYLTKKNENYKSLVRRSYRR
# Chain of HDAC1 (Q13547 whole entry, species assumed): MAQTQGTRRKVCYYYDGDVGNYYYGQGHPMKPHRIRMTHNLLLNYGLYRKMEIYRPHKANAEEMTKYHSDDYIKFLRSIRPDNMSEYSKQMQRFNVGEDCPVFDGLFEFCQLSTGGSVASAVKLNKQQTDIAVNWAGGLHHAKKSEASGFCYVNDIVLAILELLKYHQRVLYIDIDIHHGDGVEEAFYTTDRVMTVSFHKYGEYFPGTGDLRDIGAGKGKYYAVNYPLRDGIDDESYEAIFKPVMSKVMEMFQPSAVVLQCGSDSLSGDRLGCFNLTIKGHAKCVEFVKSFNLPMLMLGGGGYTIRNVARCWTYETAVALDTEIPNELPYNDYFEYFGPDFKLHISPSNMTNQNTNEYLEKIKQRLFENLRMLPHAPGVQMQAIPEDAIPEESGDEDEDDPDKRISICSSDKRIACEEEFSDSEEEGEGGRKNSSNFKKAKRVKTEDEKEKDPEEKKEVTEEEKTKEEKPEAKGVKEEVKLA
# Chain of HDAC9 (Q9UKV0 whole entry, species assumed): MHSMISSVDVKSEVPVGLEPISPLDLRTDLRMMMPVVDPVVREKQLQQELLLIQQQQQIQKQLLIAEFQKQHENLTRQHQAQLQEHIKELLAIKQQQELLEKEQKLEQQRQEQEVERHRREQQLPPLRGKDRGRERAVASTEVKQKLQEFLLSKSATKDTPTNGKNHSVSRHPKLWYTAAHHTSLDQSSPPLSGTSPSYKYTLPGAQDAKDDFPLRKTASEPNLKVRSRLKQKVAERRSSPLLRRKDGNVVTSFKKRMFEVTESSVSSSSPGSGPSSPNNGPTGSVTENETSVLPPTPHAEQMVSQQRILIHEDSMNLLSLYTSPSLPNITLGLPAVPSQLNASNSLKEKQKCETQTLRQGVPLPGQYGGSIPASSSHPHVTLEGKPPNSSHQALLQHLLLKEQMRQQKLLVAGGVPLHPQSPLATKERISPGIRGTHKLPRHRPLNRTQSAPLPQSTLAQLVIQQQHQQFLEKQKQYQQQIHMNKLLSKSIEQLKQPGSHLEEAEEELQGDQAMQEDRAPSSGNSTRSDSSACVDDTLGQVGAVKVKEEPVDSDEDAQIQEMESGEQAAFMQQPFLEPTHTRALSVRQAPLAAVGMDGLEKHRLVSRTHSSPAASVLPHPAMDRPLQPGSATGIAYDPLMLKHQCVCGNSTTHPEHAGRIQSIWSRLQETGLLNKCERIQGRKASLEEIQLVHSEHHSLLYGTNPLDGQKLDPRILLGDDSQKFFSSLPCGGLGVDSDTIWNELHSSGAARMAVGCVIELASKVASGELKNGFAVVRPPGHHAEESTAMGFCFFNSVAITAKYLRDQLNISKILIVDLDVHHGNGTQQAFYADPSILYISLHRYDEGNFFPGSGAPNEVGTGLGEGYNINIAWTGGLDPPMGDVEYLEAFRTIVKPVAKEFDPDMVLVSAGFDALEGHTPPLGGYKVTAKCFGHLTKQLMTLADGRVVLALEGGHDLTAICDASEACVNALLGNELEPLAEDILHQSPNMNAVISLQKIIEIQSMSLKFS
smiles,measurement,setting,value
"CS(C)(=O)=Nc1ccc(C(=O)Nc2cc(-c3ccc(F)cc3)ccc2N)cc1 [Compound 1, N-(4-Amino-4'-fluoro-[1,1'-biphenyl]-3-yl)-4-((dimethyl(oxo)-1^λ-6-sulfaneylidene)amino)benzamide]",Change in body weight(%),[1]; monotherapy 30 mg/kg QD PO,1.13+3.79%
same,"Tumor response, number of mice (CR/PR/SD)",[1]; monotherapy 30 mg/kg QD PO,1PR
same,TGI(%),[1]; monotherapy 30 mg/kg,38.57%
same,Change in body weight(%),[1]; monotherapy 90 mg/kg QD PO,-10.53+7.1%
same,"Tumor response, number of mice (CR/PR/SD)",[1]; monotherapy 90 mg/kg QD PO,1PR+1SD
same,TGI(%),[1]; monotherapy 90 mg/kg,88.35%
same,IC50,"HDAC3; Table 4, read-out: IC50 HDAC3",> 5000 nM
same,IC50,"HDAC3; Table 5, read-out: IC50 HDAC3",> 3000 nM
same,IC50,"HDAC3; Table 6, read-out: IC50 HDAC subtype 3",5510 nM
same,Acetyl lysine Maximum (%),Acetyl lysine,500%
same,Acetyl lysine Minimum effective concentration,Acetyl lysine,16 nM
same,IC50,HDAC10,22.2 nM
same,IC50,HDAC9,> 30000 nM
same,H3K 27 Acetyl lysine Maximum (%),H3K 27 Acetyl lysine,200%
same,H3K 27 Acetyl lysine Minimum effective concentration,H3K 27 Acetyl lysine,80 nM
same,CLint scaled at 1 µM,[2]; Human liver microsomes,17.4 mL/min/kg
same,Clliver,[2]; Human liver microsomes,9.45 mL/min/kg
same,half-life at 1 µM,[2]; Human liver microsomes,1.67 h
same,CLint scaled at 1 µM,[2]; Mouse liver microsomes,5.55 mL/min/kg
same,Clliver,[2]; Mouse liver microsomes,5.23 mL/min/kg
same,half-life at 1 µM,[2]; Mouse liver microsomes,16.4 h
same,IC50,"HDAC1; Table 4, read-out: IC50 HDAC1",< 500 nM
same,IC50,"HDAC1; Table 5, read-out: IC50 HDAC1",< 30 nM
same,IC50,"HDAC1; Table 6, read-out: IC50 HDAC subtype 1",26.5 nM
same,AUC(0-t),[3]; [4],2280 ng·h/mL
same,clearance,[3]; [4],7.29 mL/min/kg
same,half-life,[3]; [4],3.01 h
same,Vd,"[3]; Injection (1 mg/kg), intravenous, read-out: Vdss",1.68 L/kg
same,AUC(0-t),[3]; Oral administration (10 mg/kg),15400 ng·h/mL
same,Cmax,[3]; Oral administration (10 mg/kg),1370 ng/mL
same,Tmax,[3]; Oral administration (10 mg/kg),2 h
same,bioavailability,[3]; Oral administration (10 mg/kg),67.4%
same,half-life,[3]; Oral administration (10 mg/kg),2.73 h
